What was measured:
rat [1] = details: Prenatal developmental toxicity study, sprague dawley, Oral, Feed, dose end: 22 GD
mouse [2] = details: Subchronic oral toxicity in rodents, cd1, Feed, dose end: 91 day, group: systemic
rat [3] = details: Prenatal developmental toxicity study, sprague dawley, Oral, Gavage/Intubation, dose end: 21 GD
rat [4] = details: Combined chronic toxicity/carcinogenicity, sprague dawley, Oral, Feed, dose end: 24 month, group: systemic
rat [5] = details: Subchronic oral toxicity in rodents, sprague dawley, Feed, dose end: 14 week, group: systemic
rat [6] = details: Subchronic oral toxicity in rodents, other, Feed, dose end: 13 week, group: systemic
dog [7] = details: Chronic toxicity, beagle, Oral, Feed, dose end: 52 week, group: systemic
rabbit [8] = details: Prenatal developmental toxicity study, new zealand white, Oral, Gavage/Intubation, dose end: 28 GD
rat [9] = details: Subchronic oral toxicity in rodents, sprague dawley, [Not Specified], dose end: 90 day, group: systemic
rat [10] = details: Subchronic oral toxicity in rodents, sprague dawley, Feed, dose end: 13 week, group: systemic
mouse [11] = details: Carcinogenicity; cd1; Oral; Feed; dose end: 18 month; group: systemic; systemic / in life observation / body weight / body weight gain + systemic / in life observation / clinical signs / fur (altered appearance…
dog [12] = details: Subchronic oral toxicity in nonrodent, beagle, Feed, dose end: 13 week, group: systemic, systemic / hematology / anemia / anemia - hemolytic + systemic / hematology / erythrocyte (rbc) count differential / erythrocyte (rbc) + …
rat [13] = details: Prenatal developmental toxicity study, sprague dawley, Oral, Gavage/Intubation, dose end: 21 GD; remark: listed apart in the source
rat [14] = details: Prenatal developmental toxicity study, other, Oral, Gavage/Intubation, dose end: 15 GD
mouse [15] = details: Carcinogenicity, other, Oral, Feed, dose end: 18 month, group: systemic
rat [16] = details: Multigenerational reproductive toxicity study, other, Oral, Feed, dose end: 2 generation
rat [17] = details: Combined chronic toxicity/carcinogenicity, sprague dawley, Oral, Feed, dose end: 24 month, group: systemic; remark: listed apart in the source
dog [18] = details: Subchronic oral toxicity in nonrodent, beagle, Feed, dose end: 13 week, group: systemic
rabbit [19] = details: Prenatal developmental toxicity study, other, Oral, Gavage/Intubation, dose end: 19 GD
dog [20] = details: Chronic toxicity, beagle, Oral, Feed, dose end: 52 week, group: systemic; remark: listed apart in the source
rat [21] = details: Subchronic oral toxicity in rodents, other, Feed, dose end: 3 month, group: systemic, systemic / clinical chemistry / alkaline phosphatase (alp/alk) / alkaline phosphatase (alp/alk) + systemic / in life observation / body …
[22] = group: developmental, systemic / in life observation / body weight / fetal weight
[23] = group: maternal, systemic / in life observation / body weight / body weight + systemic / in life observation / body weight / body weight gain + systemic / in…
[24] = group: maternal, systemic / in life observation / body weight / body weight gain
[25] = systemic / in life observation / body weight / body weight + systemic / in life observation / body weight / body weight gain + systemic / in…
[26] = systemic / pathology microscopic / spleen / pigmentation
[27] = systemic / hematology / erythrocyte (rbc) count differential / erythrocyte (rbc) + systemic / hematology / hematocrit (hct) / hematocrit (…
[28] = systemic / in life observation / body weight / body weight gain
[29] = systemic / in life observation / body weight / body weight gain + systemic / in life observation / body weight / body weight + systemic / in…
[30] = systemic / hematology / erythrocyte (rbc) count differential / erythrocyte (rbc) + systemic / hematology / heinz body / heinz body + …
[31] = systemic / organ weight / liver / absolute + systemic / organ weight / liver / relative to body weight + systemic / organ weight / liver / …
[32] = group: developmental, developmental / developmental malformation / bone / incomplete ossification + systemic / in life observation / body weight / fetal weight
[33] = group: maternal, systemic / in life observation / body weight / body weight gain + systemic / in life observation / food consumption / food consumption
[34] = group: maternal, systemic / in life observation / body weight / body weight gain + systemic / in life observation / food consumption / food consumption + …
[35] = systemic / hematology / methemoglobin / methemoglobin
[36] = systemic / pathology microscopic / spleen / hematopoietic cell proliferation + systemic / pathology microscopic / spleen / pigmentation
[37] = group: developmental, developmental / developmental malformation / bone / incomplete ossification
[38] = group: developmental, developmental / developmental malformation / bone / incomplete ossification + developmental / developmental malformation / bone / dumbbell …
[39] = systemic / in life observation / body weight / body weight + systemic / organ weight / spleen / relative to body weight
[40] = group: offspring, developmental / developmental landmark / eye opening / eye opening + systemic / in life observation / body weight / offspring (pup) weight
[41] = group: parental, systemic / organ weight / liver / relative to body weight
[42] = systemic / pathology microscopic / liver / hypertrophy
[43] = systemic / pathology microscopic / liver / hypertrophy + systemic / clinical chemistry / albumin / albumin + systemic / clinical chemistry…
[44] = systemic / clinical chemistry / alkaline phosphatase (alp/alk) / alkaline phosphatase (alp/alk) + systemic / organ weight / liver / absolute…
[45] = systemic / organ weight / liver / relative to body weight
[46] = group: developmental, developmental / developmental malformation / bone / full supernumerary
[47] = group: developmental, developmental / developmental malformation / bone / full supernumerary + developmental / developmental malformation / bone / extra …
[48] = systemic / hematology / anemia / anemia - nos + systemic / clinical chemistry / cholesterol / cholesterol + systemic / clinical chemistry / …

COC(=O)N(C(=O)N1CO[C@@]2(C(=O)OC)Cc3cc(Cl)ccc3C2=N1)c1ccc(OC(F)(F)F)cc1 [Indoxacarb]
LEL (rat [1]; [22]): 4.14 mg/kg/day
LOAEL (rat [1]; [22]): 4.14 mg/kg/day
NEL (rat [1]; [22]): 2.18 mg/kg/day
NOAEL (rat [1]; [22]): 2.18 mg/kg/day
LOAEL (rat [1]; [23]): 2.18 mg/kg/day
NOAEL (rat [1]; [23]): 1.11 mg/kg/day
LEL (rat [1]; [24]): 1.11 mg/kg/day
NEL (rat [1]; [24]): < 1.11 mg/kg/day
LOAEL (mouse [2]; [25]): 30 mg/kg/day
NOAEL (mouse [2]; [25]): 16 mg/kg/day
LEL (mouse [2]; [26]): 12 mg/kg/day
NEL (mouse [2]; systemic / pathology microscopic / spleen / pigmentation + systemic / pathology microscopic / spleen / hyperplasia): 5.5 mg/kg/day
LEL (rat [3]; [22]): 500 mg/kg/day
LOAEL (rat [3]; [22]): > 1000 mg/kg/day
NEL (rat [3]; [22]): 100 mg/kg/day
NOAEL (rat [3]; [22]): ≥ 1000 mg/kg/day
LEL (rat [3]; [23]): 100 mg/kg/day
LOAEL (rat [3]; [23]): 100 mg/kg/day
NEL (rat [3]; [23]): 10 mg/kg/day
NOAEL (rat [3]; [23]): 10 mg/kg/day
LOAEL (rat [4]; [27]): 2.13 mg/kg/day
NOAEL (rat [4]; [27]): 1.04 mg/kg/day
LEL (rat [4]; [26]): 0.798 mg/kg/day
LEL (rat [5]; [28]): 4.9 mg/kg/day
LOAEL (rat [5]; [28]): 7.5 mg/kg/day
NEL (rat [5]; [29]): 2.5 mg/kg/day
NOAEL (rat [5]; [29]): 3.7 mg/kg/day
LEL (rat [6]; [27]): 1.5 mg/kg/day
LOAEL (rat [6]; [25]): 6.25 mg/kg/day
NEL (rat [6]; [25]): 0.75 mg/kg/day
NOAEL (rat [6]; [25]): 3 mg/kg/day
LOAEL (dog [7]; [30]): 18 mg/kg/day
NOAEL (dog [7]; [30]): 2.3 mg/kg/day
LEL (dog [7]; [31]): 1.3 mg/kg/day
NEL (dog [7]; [31]): < 1.3 mg/kg/day
LEL (rabbit [8]; [32]): 1000 mg/kg/day
LOAEL (rabbit [8]; [32]): 1000 mg/kg/day
NEL (rabbit [8]; [32]): 500 mg/kg/day
NOAEL (rabbit [8]; [32]): 500 mg/kg/day
LOAEL (rabbit [8]; [33]): 1000 mg/kg/day
LEL (rabbit [8]; [34]): 1000 mg/kg/day
NEL (rabbit [8]; [34]): 500 mg/kg/day
NOAEL (rabbit [8]; [34]): 500 mg/kg/day
LEL (rat [9]; [35]): 0.56 mg/kg/day
NEL (rat [9]; [35]): < 0.56 mg/kg/day
LOAEL (rat [9]; [25]): 4.1 mg/kg/day
NOAEL (rat [9]; [25]): 1.7 mg/kg/day
LOAEL (rat [10]; [25]): 3.78 mg/kg/day
NOAEL (rat [10]; [25]): 2.13 mg/kg/day
LEL (rat [10]; [36]): 0.76 mg/kg/day
NEL (rat [10]; [36]): < 0.76 mg/kg/day
LEL (mouse [11]): 13.8 mg/kg/day
LOAEL (mouse [11]): 13.8 mg/kg/day
NEL (mouse [11]): 2.63 mg/kg/day
NOAEL (mouse [11]): 2.63 mg/kg/day
LEL (dog [12]): 19 mg/kg/day
LOAEL (dog [12]): 19 mg/kg/day
NEL (dog [12]): 5 mg/kg/day
NOAEL (dog [12]): 5 mg/kg/day
LEL (rat [13]; [22]): 4 mg/kg/day
LOAEL (rat [13]; [22]): 4 mg/kg/day
NEL (rat [13]; [22]): 2 mg/kg/day
NOAEL (rat [13]; [22]): 2 mg/kg/day
LEL (rat [13]; [23]): 4 mg/kg/day
LOAEL (rat [13]; [23]): 4 mg/kg/day
NEL (rat [13]; [23]): 2 mg/kg/day
NOAEL (rat [13]; [23]): 2 mg/kg/day

CC1=NNC(=O)N(/N=C/c2cccnc2)C1 [Pymetrozine]
LEL (rat [14]; [37]): 30 mg/kg/day
NEL (rat [14]; [37]): < 30 mg/kg/day
LOAEL (rat [14]; [38]): 300 mg/kg/day
NOAEL (rat [14]; [38]): 100 mg/kg/day
LEL (rat [14]; [33]): 100 mg/kg/day
LOAEL (rat [14]; [33]): 100 mg/kg/day
NEL (rat [14]; [33]): 30 mg/kg/day
NOAEL (rat [14]; [33]): 30 mg/kg/day
NOAEL (mouse [15]; systemic / in life observation / body weight / body weight + systemic / organ weight / liver / relative to body weight + systemic / …): 12 mg/kg/day
LEL (mouse [15]; [39]): 1.2 mg/kg/day
NEL (mouse [15]; [39]): < 1.2 mg/kg/day
LOAEL (mouse [15]; systemic / organ weight / liver / relative to body weight + systemic / pathology microscopic / liver / hypertrophy + systemic / pathology …): 250 mg/kg/day
LEL (rat [16]; [40]): 100 mg/kg/day
LOAEL (rat [16]; [40]): 100 mg/kg/day
NEL (rat [16]; [40]): 10 mg/kg/day
NOAEL (rat [16]; [40]): 10 mg/kg/day
LEL (rat [16]; [41]): 1.7 mg/kg/day
NEL (rat [16]; [41]): < 1.7 mg/kg/day
LOAEL (rat [16]; group: parental, systemic / pathology microscopic / liver / hypertrophy): 13.9 mg/kg/day
NOAEL (rat [16]; group: parental, systemic / pathology microscopic / liver / hypertrophy + systemic / in life observation / body weight / body weight + systemic / in life …): 1.4 mg/kg/day
LEL (rat [17]; [42]): 3.76 mg/kg/day
LOAEL (rat [17]; [42]): 3.76 mg/kg/day
NEL (rat [17]; [43]): 0.377 mg/kg/day
NOAEL (rat [17]; [43]): 0.377 mg/kg/day
LOAEL (dog [18]; [44]): 14 mg/kg/day
NOAEL (dog [18]; [44]): 3.12 mg/kg/day
LEL (dog [18]; [45]): 3.12 mg/kg/day
NEL (dog [18]; [45]): < 3.12 mg/kg/day
LEL (rabbit [19]; [46]): 75 mg/kg/day
LOAEL (rabbit [19]; [46]): 75 mg/kg/day
NEL (rabbit [19]; [47]): 10 mg/kg/day
NOAEL (rabbit [19]; [47]): 10 mg/kg/day
LEL (rabbit [19]; [34]): 75 mg/kg/day
LOAEL (rabbit [19]; [34]): 75 mg/kg/day
NEL (rabbit [19]; [34]): 10 mg/kg/day
NOAEL (rabbit [19]; [34]): 10 mg/kg/day
LEL (dog [20]; systemic / clinical chemistry / cholesterol / cholesterol + systemic / organ weight / liver / absolute + systemic / organ weight / liver / …): 5.33 mg/kg/day
NEL (dog [20]; [48]): 0.57 mg/kg/day
NOAEL (dog [20]; [48]): 5.33 mg/kg/day
LOAEL (dog [20]; systemic / hematology / anemia / anemia - nos + systemic / pathology microscopic / intestine large / [other] + systemic / pathology …): 27.8 mg/kg/day
LEL (rat [21]): 360 mg/kg/day
LOAEL (rat [21]): 360 mg/kg/day
NOAEL (rat [21]): 32.5 mg/kg/day

Source: EPA's ToxRefDB 2
